What was measured:
Format in all cases: cell-based
[1] = tested on: MCF-7 (Breast cancer cell line); experiment: Assay for bio-enhancement of anti-cancer agents: viable cell count after 36 hours; settings: for Final titre of viable cells upon treatment with taxol-glycyrrhizin combination / Final titre of viable cells upon treatment with taxol alone: initial titre 0.1 × 10^6, 36 hours
Protocol: (§1) For this, the cells are treated with the bioenhancer/compound for 4 to 8 hours and then washed free of it by centrifugation and washing in sterile water. […] 2. Assay for Bio-Enhancement of Anti-Cancer Agents • a) MCF-7 (Breast cancer cell line is inoculated at a density of about 0.1×10^6 cells in MEM medium in the wells of 24 well plate. • b) The used up medium in these cultures is replaced with fresh medium after 18 hours in each well. • c) The test compound (s) is added at desired concentrations in different wells just after the medium replacement. • d) Observations are recorded on the cell count after 36 hours for which the following steps are required. • i. The medium is removed from the wells. • ii. The wells are rinsed with 1 ml PBS (Phosphate buffer saline). • iii. To each well 500 μl of freshly prepared trypsin solution (0.1% in PBS) is added. • iv. Trypsin solution is removed after 30 seconds and the plate is gently tapped till the cells are released from the plate surface. • v. Fresh 1 ml of MEM growth medium is added and agitated with a pipette to obtain a cell suspension. • vi. 10 μl of cell suspension is taken on the haemocytometer and a cover glass is placed over the counting chamber. • vii. The number of viable cells is counted in 5 big squares and the reading is taken from 5 microscopic fields to determine the average. • viii. The cell count (titre per ml) in the original sample is then calculated as average count×10^3. Composition of Minimum Essential Medium (MEM): 100 ml

[2] = tested on: Escherichia coli (ATCC 10536); experiment: Broth assay for bio-enhancement of antibiotics: viable cell count, Escherichia coli; settings: Table 1; for *Folds enhancement in antibiotic activity (a/b): glycyrrhizin 1 μg/ml
[3] = tested on: Mycobacterium smegmatis (ATCC 14468); experiment: Broth assay for bio-enhancement of antibiotics: viable cell count, Mycobacterium smegmatis; settings: Table 3; for *Folds enhancement in antibiotic activity (a/b): glycyrrhizin 1 μg/ml
Protocol: as §1
(§2) In the next step of elucidation of the enhancer action the applicants experimented with the killing activities of different antibiotics against the bacteria singly and in combination with the test compound glycyrrhizin following the method described above. These experiments are to be considered with assay for bioenhancement of the compounds glycyrrhizin/glycyrrhizic acid and licorice, as described earlier. […] In all the experiments the glycyrrhizin concentration was kept at 1 μg/ml, unless it is specifically mentioned.

[4] = tested on: Bacillus subtilis (ATCC 6015); experiment: Broth assay for bio-enhancement of antibiotics: viable cell count, Bacillus subtilis
Protocol: as §2

[5] = tested on: Candida albicans (ATCC 10231); experiment: Disc diffusion assay, antifungal agent against Candida albicans
Protocol: (§3) • a) The minimum inhibitory concentration (MIC) of any antibiotic or drug molecule is determined against Escherichia coli (ATCC 10536), Bacillus subtilis (ATCC 6015) and Mycobacterium smegmatis (ATCC 14468) and Candida albicans (ATCC 10231) in broth and disc diffusion assays. • b) The antibiotics or antifungal agents at concentrations 1/10, ⅛, ⅙, ¼, ⅓, ½ and equal to MIC are added alone and in combination with the test compound at varying concentrations in broth assays to evaluate the comparative level of inhibition and similarly at varying concentrations in disc diffusion assay. • c) The combinations showing enhancement in terms of higher activity than antibiotic alone for the inhibition of bacterial growth (large inhibition zone in disc diffusion and higher killing at lower concentration in broth assay) are picked up for future testing. • d) In broth assays the activity is quantified by counting number of viable cells in a given treatment and converted in fold enhancement by the combination treatment compared to antibiotic/drug alone in the killing percentage of cells. • e) The pretreatment assay is followed to determine whether the bioenhancer which may be either an extract obtained from the plant Glycyrrhiza glabra, glycyrrhizin or glycyrrhizic acid, is required along with antibiotic to enhance its activity or even its withdrawal after treatment or prior to antibiotic treatment would benefit. […] Assay for Bio-Enhancement of Anti-Cancer Agents • a) MCF-7 (Breast cancer cell line is inoculated at a density of about 0.1×10^6 cells in MEM medium in the wells of 24 well plate. • b) The used up medium in these cultures is replaced with fresh medium after 18 hours in each well. • c) The test compound (s) is added at desired concentrations in different wells just after the medium replacement. • d) Observations are recorded on the cell count after 36 hours for which the following steps are required. • i. […] The number of viable cells is counted in 5 big squares and the reading is taken from 5 microscopic fields to determine the average. • viii. […]

Mycobacterium smegmatis = experiment: Disc diffusion assay against Mycobacterium smegmatis; settings: Mycolicibacterium smegmatis; read-out: Net zone of inhibition
Protocol: as §3

Escherichia coli = experiment: Disc diffusion assay against Escherichia coli; settings: Escherichia coli; read-out: Net zone of inhibition
Protocol: as §3

[6] = antibiotic 8 μg/ml + glycyrrhizin 1 μg/ml
[7] = antibiotic 4 μg/ml + glycyrrhizin 1 μg/ml

CC(=O)O[C@H]1C(=O)[C@@]2(C)[C@H]([C@H](OC(=O)c3ccccc3)[C@]3(O)C[C@H](OC(=O)[C@H](O)[C@@H](NC(=O)c4ccccc4)c4ccccc4)C(C)=C1C3(C)C)[C@]1(OC(C)=O)CO[C@@H]1C[C@@H]2O [Taxol, Paclitaxel (Taxol)]
Cancerous cells growth inhibition by Taxol in presence of glycyrrhizin, compared with taxol alone ([1]; Taxol 0.01 μg/ml + glycyrrhizin 1 μg/ml versus taxol 0.05 μg/ml alone): higher than even the treatment with taxol (@ 0.05 μg/ml) alone | Final titre of viable cells upon treatment with taxol-glycyrrhizin combination ([1]; taxol 0.01 μg/ml + glycyrrhizin 1 μg/ml): 0.025 × 10^6 per ml | Final titre of viable cells upon treatment with taxol alone ([1]; taxol 0.01 μg/ml): 0.05 × 10^−6 per ml | Final titre of viable cells upon treatment with taxol-glycyrrhizin combination ([1]; taxol 0.02 μg/ml + glycyrrhizin 1 μg/ml): 0.024 × 10^6 per ml | Final titre of viable cells upon treatment with taxol alone ([1]; taxol 0.02 μg/ml): 0.04 × 10^−6 per ml | Final titre of viable cells upon treatment with taxol-glycyrrhizin combination ([1]; taxol 0.05 μg/ml + glycyrrhizin 1 μg/ml): 0.021 × 10^6 per ml | Final titre of viable cells upon treatment with taxol alone ([1]; taxol 0.05 μg/ml): 0.03 × 10^−6 per ml | Enhancement of anticancerous activity (inhibiting growth and multiplication of MCF-7 cells) by glycyrrhizin ([1]; taxol with glycyrrhizin 1 μg/ml): at least 5 folds

CC1(C)S[C@@H]2[C@H](NC(=O)[C@H](N)c3ccccc3)C(=O)N2[C@H]1C(=O)O [Ampicillin]
Survival fraction of viable cells upon treatment with antibiotic alone (a) ([2]; antibiotic 6 μg/ml): 0.38 | Survival fraction of viable cells upon treatment with antibiotic- glycyrrhizin combination (b) ([2]; antibiotic 6 μg/ml + glycyrrhizin 1 μg/ml): 0.03 | *Folds enhancement in antibiotic activity (a/b) ([2]; antibiotic 6 μg/ml): 12.6 folds | Survival fraction of viable cells upon treatment with antibiotic alone (a) ([2]; antibiotic 8 μg/ml): 0.013 | Survival fraction of viable cells upon treatment with antibiotic- glycyrrhizin combination (b) [2, 6]: 0.006 | *Folds enhancement in antibiotic activity (a/b) ([2]; antibiotic 8 μg/ml): 2.1 folds

CN(C)[C@@H]1C(O)=C(C(N)=O)C(=O)[C@@]2(O)C(O)=C3C(=O)c4c(O)cccc4[C@@](C)(O)[C@H]3C[C@@H]12 [Tetracycline]
Survival fraction of viable cells upon treatment with antibiotic alone (a) ([3]; antibiotic 0.5 μg/ml): 0.3 | Survival fraction of viable cells upon treatment with antibiotic- glycyrrhizin combination (b) ([3]; antibiotic 0.5 μg/ml + glycyrrhizin 1 μg/ml): 0.2 | *Folds enhancement in antibiotic activity (a/b) ([3]; antibiotic 0.5 μg/ml): 1.5 folds | Survival fraction of viable cells upon treatment with antibiotic alone (a) ([4]; Table 2, antibiotic 1 μg/ml): 0.10 | Survival fraction of viable cells upon treatment with antibiotic- glycyrrhizin combination (b) ([4]; Table 2, antibiotic 1 μg/ml + glycyrrhizin 1 μg/ml): 0.02 | *Folds enhancement in antibiotic activity (a/b) ([4]; Table 2, antibiotic 1 μg/ml, glycyrrhizin 1 μg/ml): 5.00 folds | Survival fraction of viable cells upon treatment with antibiotic alone (a) ([2]; antibiotic 2 μg/ml): 0.42 | Survival fraction of viable cells upon treatment with antibiotic- glycyrrhizin combination (b) ([2]; antibiotic 2 μg/ml + glycyrrhizin 1 μg/ml): 0.22 | *Folds enhancement in antibiotic activity (a/b) ([2]; antibiotic 2 μg/ml): 1.9 folds | Survival fraction of viable cells upon treatment with antibiotic alone (a) ([2]; antibiotic 4 μg/ml): 0.27 | Survival fraction of viable cells upon treatment with antibiotic- glycyrrhizin combination (b) [2, 7]: 0.03 | *Folds enhancement in antibiotic activity (a/b) ([2]; antibiotic 4 μg/ml): 9.0 folds

Clc1ccccc1C(c1ccccc1)(c1ccccc1)n1ccnc1 [Clotrimazole]
zone of inhibition at 4 µg/disc ([5]; Candida albicans, ATCC10231, clotrimazole 4 μg/disc alone, glycyrrhizin 0): 7 mm | Zone of inhibition ([5]; clotrimazole 4 μg/disc + glycyrrhizin 1 μg/disc): 11 mm

CCn1cc(C(=O)O)c(=O)c2ccc(C)nc21 [Nalidixic acid]
Survival fraction of viable cells upon treatment with antibiotic alone (a) ([3]; antibiotic 4 μg/ml): 0.70 | Survival fraction of viable cells upon treatment with antibiotic- glycyrrhizin combination (b) [3, 7]: 0.12 | *Folds enhancement in antibiotic activity (a/b) ([3]; antibiotic 4 μg/ml): 7.7 folds | Survival fraction of viable cells upon treatment with antibiotic alone (a) ([4]; Table 2, antibiotic 6 μg/ml): 0.50 | Survival fraction of viable cells upon treatment with antibiotic- glycyrrhizin combination (b) ([4]; Table 2, antibiotic 6 μg/ml + glycyrrhizin 1 μg/ml): 0.11 | *Folds enhancement in antibiotic activity (a/b) ([4]; Table 2, antibiotic 6 μg/ml, glycyrrhizin 1 μg/ml): 4.50 folds | Survival fraction of viable cells upon treatment with antibiotic alone (a) ([4]; Table 2, antibiotic 8 μg/ml): 0.27 | Survival fraction of viable cells upon treatment with antibiotic- glycyrrhizin combination (b) ([4]; Table 2, antibiotic 8 μg/ml + glycyrrhizin 1 μg/ml): 0.04 | *Folds enhancement in antibiotic activity (a/b) ([4]; Table 2, antibiotic 8 μg/ml, glycyrrhizin 1 μg/ml): 6.75 folds | Survival fraction of viable cells upon treatment with antibiotic alone (a) ([4]; Table 11, antibiotic 6 μg/ml): 0.500 | Survival fraction of viable cells upon treatment with antibiotic glycyrrhizic acid combination (b) ([4]; Table 11, antibiotic 6 μg/ml + licorice 25 μg/ml): 0.121 | *Folds enhancement in antibiotic activity (a/b) ([4]; Table 11, antibiotic 6 μg/ml, licorice 25 μg/ml): 4.10 folds | Survival fraction of viable cells upon treatment with antibiotic alone (a) ([2]; antibiotic 8 μg/ml): 0.19 | Survival fraction of viable cells upon treatment with antibiotic- glycyrrhizin combination (b) [2, 6]: 0.02 | *Folds enhancement in antibiotic activity (a/b) ([2]; antibiotic 8 μg/ml): 9.5 folds

CC1(C)[C@@H](O[C@H]2O[C@H](C(=O)O)[C@@H](O)[C@H](O)[C@H]2O[C@@H]2O[C@H](C(=O)O)[C@@H](O)[C@H](O)[C@H]2O)CC[C@]2(C)[C@H]3C(=O)C=C4[C@@H]5C[C@@](C)(C(=O)O)CC[C@]5(C)CC[C@@]4(C)[C@]3(C)CC[C@@H]12 [Glycyrrhizic acid]
zone of inhibition at 4 µg/disc (Mycobacterium smegmatis): 0 mm | zone of inhibition at 4 µg/disc (Escherichia coli): 0 mm
